From patent publication US9658235B2, “Pi-extended acedan derivatives, their application for two-photon microscopy imaging, and their application for two-photon microscopy imaging of amyloid-beta plaque in an alzheimer's disease animal model” (POSTECH ACADEMY-INDUSTRY FOUNDATION, priority 2015, dated 2017)

Legend:
[1] = conventional acedan; cited from earlier work
[2] = Fluorescent properties (emission spectra, fluorescence quantum yield); format: physicochemical
Protocol: More specifically, in order to determine the fluorescent properties of two-photon absorbing fluorophores, the inventors of the present invention filled quartz cells having a path length of 1 cm with an ethanol solution (1%-DMSO included) which included the compounds 4a to 7a (R1=R2=Me) having a concentration of 10 μM to measure fluorescence spectra (fluorescence spectra were measured using a photon technical international fluorescence system). The results thereof with normalized fluorescence as a y-axis and light wavelength as an x-axis are shown in FIG. 1(B) and with fluorescence intensity as a y-axis and light wavelength as an x-axis are shown in FIG. 7.
Quartz cells having a path length of 1 cm were filled with a dichloromethane, acetonitrile, ethanol (1%-DMSO included) and PBS buffer solution (10 mM, pH 7.4, 0.1%-DMSO included) which included compound 4a (R1=R2=Me) having a concentration of 1 μM to measure fluorescence spectra.
Further, the fluorescence quantum yield was measured with respect to an ethanol solution including the compounds 4a to 8a (R1=R2=Me) having a concentration of 10 μM, and the result is shown in FIG. 6. Acedan which is mainly used was used as a comparative compound (fluorescence quantum yield, ΦF=0.52, measured in ethanol solution).

[3] = Absorption properties of two-photon absorbing fluorophores; format: physicochemical; details: 10 μM in ethanol solution (1%-DMSO included)
Protocol: More specifically, in order to determine the absorption properties of two-photon absorbing fluorophores, the inventors of the present invention filled quartz cells (114F-QS, Hellma Analytics) having a path length of 1 cm with an ethanol solution (1%-DMSO included) which included the compounds 4a to 7a (R1=R2=Me) having a concentration of 10 μM to measure absorption spectra. […] The absorption spectra were measured using an HP 8453 UV/Vis spectrophotometer.
Thereafter, a molar extinction coefficient (ε(Lmol^−1 cm^−1)) in a maximum absorption wavelength was calculated with respect to an ethanol solution (1%-DMSO included) which included the compounds 4a to 8a (R1=R2=Me) having a concentration of 10 μM, and the result is shown in FIG. 6. Referring to FIG. 6, it may be determined that the molar extinction coefficients (ε>11,500) for the two-photon absorbing fluorophores (particularly, compounds 4a to 8a (R1=R2=Me)) according to the embodiment of the present invention were larger than that (ε=10,700) of acedan known as a conventional two-photon absorbing fluorophore.

[4] = tested on: SHSY5Y cells; assay: MTT cytotoxicity; format: cell-based; details: 1 hour, described as low cytotoxicity
Protocol: In order to determine the cytotoxicity of cells treated with the compound 4a (R1=R2=Me) and the compound 8a (R1=R2=Me), the metabolic capability of a formazan of SHSY5Y cells with respect to […] (MTT) was evaluated.
More specifically, the cells (100 μL/well) were prepared with the density of about 5×10^3 cells in each well on a 96-well plate. The cells were treated with the compound 4a (R1=R2=Me) and the compound 8a (R1=R2=Me) each having concentrations of 1, 20 and 50 μM, was incubated for 1 hour, were cleaned using a PBS buffer solution, and 25 μL of a MTT solution (5 mg/mL) was added to each well. After the cells were incubated at 37° C. for 2 hours, the media was removed, and a formazan crystal was dissolved in DMSO to measure absorbance using a plate reader. […] Accordingly, it may be determined that the cytotoxicity of the compound 4a (R1=R2=Me) and the compound 8a (R1=R2=Me) was low to be suitable for obtaining a two-photon microscope image in tissue and an animal model.

[5] = biological target: T1, amyloid beta 42 (Aβ 42) (Homo sapiens, UniProt P05067); assay: Fluorescence spectra according to the presence of amyloid beta 42 and BSA; format: binding; details: 10 μM compound
T1 construct: according to the presence of amyloid beta 42 (Aβ 42)
Protocol: Quartz cells having a path length of 1 cm were filled with a PBS buffer solution (10 mM, pH 7.4, 0.1%-DMSO included) or an artificial cerebrospinal fluid (NaCl (124 mM), KCl (3 mM), NaH2PO4 (1.25 mM), MgCl2 (1 mM), NaHCO3 (36 mM), D-gluocose (10 mM), CaCl2(2 mM), 95%-O2, 5%-CO2 (by bubbler), aCSF and 1%-DMSO included) which included the compound 8a (R1=R2=Me) having a concentration of 10 μM to measure fluorescence spectra according to the presence of amyloid beta 42 (Aβ 42) and bovine serum albumin (BSA, 20 μg/mL), and the result is shown in FIG. 4. Referring to FIG. 4, it may be determined that the fluorescence intensity of the compound 8a (R1=R2=Me) was low when an amyloid beta plaque was absent, and the fluorescence intensity of the compound 8a (R1=R2=Me) increased when an amyloid beta plaque was present. […] In order to determine the fluorescent properties (y-axis) of the compound 8a (R1=R2=Me) according to the concentration of an amyloid beta plaque (x-axis), quartz cells having a path length of 1 cm were filled with a PBS buffer solution (1%-DMSO included) which included the compound 8a (R1=R2=Me) having a concentration of 10 μM and an amyloid beta plaque (0-50 μM) to measure fluorescence spectra, and the result is shown in FIG. 14.

[6] = Solubility in PBS buffer solution from absorption spectra; format: physicochemical; details: PBS 10 mM, pH 7.4, DMSO of less than 1%; concentrations of 1, 5 and 10 μM
Protocol: Quartz cells having a path length of 1 cm were filled with a PBS buffer solution (10 mM, pH 7.4, DMSO of less than 1% included) which included the compounds 4a to 7a (R1=R2=Me) each having concentrations of 1, 2, 5 and 10 μM to measure absorption spectra.
Quartz cells having a path length of 1 cm were filled with a PBS buffer solution (10 mM, pH 7.4, DMSO of less than 1% included) which included the compound 8a (R1=R2=Me) each having concentrations of 1, 5, 10, 15 and 20 μM to measure absorption spectra.

[7] = biological target: T2, amyloid beta plaque (Homo sapiens, UniProt P05067); assay: In vivo two-photon microscope imaging of amyloid beta plaque in an Alzheimer's disease animal model; design: species or system 5XFAD mice
T2 construct: tissue The Jackson Laboratory stock no; 006554; host or cells: brain of living 5XFAD (Tg6799) mice, 13 months old, imaged through a cranial window
Protocol: In order to observe the two-photon microscope image of tissue of mice treated with the compound 8a (R1=R2=Me), 5XFAD mice (13-months-old, The Jackson Laboratory, Bar Harbor, Me., USA; stock no. 006554, Tg6799) were used. An amyloid beta plaque is shown as a typical characteristic of Alzheimer's disease.
All animal experiments were performed after the approval from an animal testing ethics committee. In an open-skull craniotomy surgery, imaging was performed after treatment with the compound 8a (R1=R2=Me) and MeO-X04 which is a well-known amyloid beta plaque fluorophore. The mice were fixed on a stereotactic heating surface using Zoletil 50 (Virbac; intramuscular injection, 0.03 mL) as an anesthetic agent (Seoul, Republic of Korea, 37° C.). After a scalp and periosteum were removed, a hole having a diameter of 3 mm was formed at a distance 1 mm from the bregma and 1 mm from the sagittal suture of a skull, a bone was removed, and then a round coverslip was adhered thereto using Loctite 454. The exposed portion of the skull was covered with a dental acrylic, and dexamethasone (0.2 mg/kg) and carprofen (5 mg/kg) which are anti-inflammatory drugs were used before and after the surgery.
A product manufactured by Carl Zeiss Microscopy GmbH (Oberkochen, Germany; model no. LSM 7 MP two-photon laser scanning microscope system) was used as a two-photon microscope. […] Further, the photo-bleaching process images and the relative fluorescence intensity in […] images before and after irradiation with a light source with respect to the compound 8a (R1=R2=Me) and a complex compound of an amyloid beta plaque are shown in FIG. 18. Referring to FIG. 18, it may be determined that the fluorescence intensity of the compound 8a (R1=R2=Me) decreased about 40% when irradiated with a two-photon light source for 35 minutes.

[8] = Fluorescence intensity according to pH; format: physicochemical; details: 10 μM, aqueous solution (1%-DMSO), pH 4 to 10, excitation 500 nm
Protocol: In order to determine the fluorescent properties (y-axis) of the compound 8a (R1=R2=Me) according to the pH (x-axis), quartz cells having a path length of 1 cm were filled with an aqueous solution (1%-DMSO included) which has a pH in the range of 4 to 10 and included the compound 8a (R1=R2=Me) having a concentration of 10 μM to measure the fluorescence spectrum, and the result is shown in FIG. 15.

T2 sequence (P05067 672-713 limits assumed): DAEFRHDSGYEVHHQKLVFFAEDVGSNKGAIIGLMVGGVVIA
T1 sequence (P05067 672-713 limits assumed): as above

Question: Which results are given for `CC(=O)c1ccc2cc(N(C)C)ccc2c1` [acedan, 1-(6-dimethylaminonaphthalene-2-yl) ethanone]?
Answer: two-photon absorption efficiency value [1]: ~100 GM; fluorescence quantum yield ΦF ([2]; measured in ethanol solution, comparative compound): 0.52; molar extinction coefficient (ε) in a maximum absorption wavelength [3]: 10,700 Lmol^−1 cm^−1

Question: What does the source list for `CN(C)c1ccc2cc3c(cc2c1)OC1CCCC(=O)C1=C3` (stereo not shown) [compound 4a, 8-(dimethylamino)-2,3,4a-tetrahydro-1H-benzo[b]xanthene-1-one]?
Answer: maximum emission wavelength (λem) compared with acedan ([2]; 1 μM in dichloromethane, acetonitrile, ethanol and PBS buffer solution): longer than that of conventional acedan; cytotoxicity (apoptosis) ([4]; 1 μM and 20 μM): 20%

Question: With `CN(C)c1ccc2cc3c(cc2c1)OCC(C=C(C#N)C#N)=C3` [compound 8a, 2-(((8-dimethylamino)-2H-benzo[g]chromene-3-yl)methylene)malononitrile] as the compound, how does the “fluorescence intensity when an amyloid beta plaque was present” value ([5]; Aβ42 20 μM, PBS (pH 7.4) or aCSF, low when plaque absent) read?
Answer: increased

Question: And the “selective detection of amyloid beta plaque” value ([5]; Aβ42 versus BSA 20 μg/mL, PBS or aCSF)?
Answer: selectively detected an amyloid beta plaque

Question: What about the “solubility in a PBS buffer solution” value [6] of the same compound?
Answer: sufficient solubility

Question: What about the “visualization of amyloid beta plaque in animal model with Alzheimer's disease” value ([7]; 30 mg/kg intraperitoneal, 13-month-old 5XFAD mice, frontal cortex, 1,000 nm, depth to 300 μm) of the same compound?
Answer: selectively visualize an amyloid beta plaque

Question: And the “conformity of image with MeO-X04 image” value ([7]; 30 mg/kg intraperitoneal, 24 hours before imaging, 1,000 nm, MeO-X04 10 mg/kg, 780 nm)?
Answer: significantly high

Question: And the “decrease of fluorescence intensity (photo-bleaching)” value ([7]; complex with amyloid beta plaque, tissue depth 50 μm, two-photon light source for 35 minutes)?
Answer: about 40%

Question: And the “fluorescence intensity according to pH” value [8]?
Answer: low regardless of pH

Question: And the “cytotoxicity (apoptosis)” value ([4]; 1 to 50 μM)?
Answer: 20%
